Marks after values point to notes of the source that are not given here.
Key:
[1] = tested on: LLC (mouse lung cancer cells); test: Enrichment of CD8+ cytotoxic T lymphocytes in tumor tissue, Lewis non-small cell lung cancer model of mice; format: in vivo; settings: 400 mg/kg ip once a day for 10 days, CD8+ immunohistochemistry
[2] = tested on: nonfusion human umbilical vein endothelial cells (HUVEC); test: TMT quantitative proteomics on nonfusion HUVEC; format: cell-based; settings: 10 μM; for Differentially expressed proteins: more than 1.5 times or less than 0.67 times vs control; for Down-regulation / Up-regulation: number of proteins
Protocol: Nonfusion human umbilical vein endothelial cells (HUVEC) were used to simulate new tumor blood vessels, while confluent HUVECs were used to simulate normal blood vessels, to construct experimental models. Two different HUVECs were treated with the compound at the same dosage of 10 μM, to simulate the fusion cell state, and proteome samples were prepared. After preparation of peptide segments, the segments were labelled with TMT, and a quantitative proteomics analysis was carried out. The efficiency of TMT labeling was higher than 99.4%, and a total of 28372 peptide segments from 4934 proteins were characterized using a strict 1% FDR limit. Among them, 4909 quantifiable proteins were identified, indicating reliable quality. The nonfusion treatment groups and the fusion treatment groups were compared with their respective control groups, and the control group was used as a reference, with a significant difference of more than 1.5 times or less than 0.67 times as the protein score standard.
The total cell proteins of the samples in nonfusion cell groups and fusion cell groups were extracted separately, and 2 μg of protein samples were subjected to quality analysis, The quantitative proteomics experiments were carried out, and the protein concentration assay was performed by quantitative grayscale measurement.
Data analysis: The human protein database (Scientific name: Homo sapiens, 9606) was downloaded from UniProt, MaxQuant (v 1.5.5.1) search engine was used to search for the database. A total of 4934 proteins (4909 quantitative proteins) and 28372 peptide segments were identified by TMT quantitative proteomics experiments, with a labeling efficiency of more than 99%, and the complete digestion occupied 86.3%.

[3] = tested on: human gastric cancer MGC803; test: Human gastric cancer MGC803 transplanted tumor in nude mice; format: in vivo, BALB/C nude mice; settings: MGC803, 200 mg/kg ip × 14
Protocol: A human gastric cancer MGC803 model transplanted into nude mice was used in the experiment to investigate the anti-tumor effect of test compounds.
Preparation: The compound was prepared as the injection at the desired concentration with sterile normal saline, prior to administration.
Animal strain: BALB/C nude mice (SPF grade), weight: 19-21 g, gender: male.
Number of animals in each treatment group: 8; number of animals in the control group: >12.
The tumor blocks of human gastric cancer MGC803 with good growth were cut into uniform small pieces of 3 mm under sterile conditions, and then subcutaneously inoculated into the right armpit of each mouse with a cannula. These mice were divided into 9 groups, 8 mice for each treatment group, while more than 12 mice were included in the control group.
14 days after inoculation, the average volume of the tumor block was about 100 mm^3. The animals were regrouped based on the size of the tumor, and the animals with tumors that were too large and too small were sifted out. For each group, the average volume of tumors was basically the same, and then the mice were initially treated with test compounds. The mice were intraperitoneally injected once a day for 14 days, at a dosage of 0.2 mL/20 g body weight. From the 14th day of inoculation, the long diameter a (mm) of the tumor, together with the perpendicular short diameter b (mm), was measured using a digital electronic caliper, twice a week. The calculation formula of tumor volume is: TV=ab^2/2, and the formula for calculating the relative tumor volume is RTV=Vt/Vo, wherein Vo denotes the tumor volume measured when the mice were divided into groups(i.e. d1), and Vt is the tumor volume from each measurement.
The result determination is based on the following formula: […]

[4] = tested on: LLC (mouse lung cancer cells); test: Enrichment of CD8+ cytotoxic T lymphocytes in tumor tissue, Lewis non-small cell lung cancer model of mice; format: in vivo; settings: 400 mg/kg ip once a day for 10 days; for The ratio of CD8^+ in total immune cells of tumor tissues (%): flow cytometry; for The ratio of distribution area in tumor tissues (%): CD8+ immunohistochemistry
Protocol: LLC (mouse lung cancer cells) were a mouse Lewis lung cancer cells.
The modeling method for LLC cell lung cancer in mice was as follows:
LLC cells were cultured in the general medium containing 10% fetal bovine serum and 100 μg/mL of double antibody (penicillin±streptomycin), and then cultivated in a 37° C., 5% CO2 cell incubator for routine incubation. LLC cells, that had grown to logarithmic phase, were digested with 0.25% trypsin (containing EDTA) to form a cell suspension, which was centrifuged at 1000 rpm/min for 3 min. The supernatant was discarded, and cell precipitates were collected, that were resuspended in culture medium without serum and double antibody. The cell suspension was further centrifuged to adjust the volume under the same conditions with the aid of cell counting, so as to prepare a cell suspension at a concentration of […] was injected into the right abdomen of each mouse, to complete the inoculation of tumor cells. The tumor was allowed to grew about 10 days, and the volume reached around 100 mm^3, before the mice were treated with test compounds.
Drug preparation: compounds 1-13 of the present invention were respective prepared into an injection with injection water.
Experimental methods: The model mice with LLC cell lung cancer were treated by intraperitoneal administration of 400 mg/kg injection containing the compound of the present invention. The model mice were divided into a negative control group (model mice only receiving equal volume of injection water by intraperitoneal administration) and treatment groups (model mice receiving the injection prepared with the compound of the present invention by intraperitoneal administration). The intraperitoneal injection regimen was carried out by injecting once a day at the pre-determined time. Before administration, the mice were weighed, and then treated with the injection at a dosage of 10 mL/kg, After successive administration for 10 days, that is, on the 10th day after receiving treatment, the mice were sacrificed, and the subcutaneous tumors were stripped to detect the ratio of cytotoxic T lymphocyte antigen CD8^+ in tumor tissues of the negative group and the treatment group by flow cytometry.
CD8^+ tumor-infiltrating lymphocytes in tumor tissues were detected by flow cytometry. The specific steps were as follows:
The mice were sacrificed, and then the abdominal epidermis of the mice was cut open using ophthalmic scissors, to fully expose the subcutaneous tumors. The subcutaneous tumor tissues on the right side of the mouse's abdomen were gradually peeled off with tweezers and ophthalmic scissors. After rinsing with PBS, the stripped tumor tissues were cut into about 1 mm using ophthalmic scissors, and then placed in 3 mL of PBS buffer containing 100 μg/mL of hyaluronidase. A centrifuge tube containing a dispersed liquid was placed in a water bath and kept at 37° C. for 20 min. A pipette was used to blow and shake the digestive tumor tissues every 5 minutes to fully digest. The dispersed liquid containing undigested tumor tissues was filtered through a 70 μm stainless steel cell screen, and the remaining undigested tumor tissues were ground using a push rod of 20 mL syringe on 70 μm cell screen and rinsed 5 times with 1 mL of PBS while grinding. The cell suspension passing the cell screen was transferred to a 15 mL centrifuge tube, and centrifuged at 4000 rpm for 3 min. Then, cell precipitates were collected, to which was added 2 mL of red cell lysis buffer, and rested for 10 min, followed by centrifuging at 4000 rpm for 3 min. After washing with PBS, the cells were resuspended by adding 2-3 mL of PBS.
An appropriate amount of cell suspension was used as the sample for flow cytometry, and after counting, the cell suspension was adjusted to have a concentration of 5×10^6/mL. 100 μL of cell suspension was added to a test tube with a pipettor. […]

Structure (SMILES)	The ratio of distribution area in tumor tissues (%) ([1]; 400 mg/kg)	Differentially expressed proteins [2]	Down-regulation [2]	Up-regulation [2]	RTV (d 18) [3]	Tumor inhibitory rate % [3]	The ratio of CD8^+ in total immune cells of tumor tissues (%) ([4]; 400 mg/kg)	The ratio of distribution area in tumor tissues (%) [4] [%]	The ratio of CD8^+ in total immune cells of tumor tissues (%) [4] [%]	The ratio of distribution area in tumor tissues (%) [1] [%]	Tumor inhibitory rate % ([3]; listed as compound 6)
COc1ccc(/C=C(/C(=O)O)c2cc(OC)c(OC)c(OC)c2)c(O)c1O [Compound 1, (E)-3-(2,3-dihydroxy-4-methoxyphenyl)-2-(3,4,5-trimethoxylphenyl)acrylic acid]	6.265 ± 0.3673	323	296	7	5.87 ± 0.63	49.05^## %	0.0605 ± 0.0124				
COc1cc(/C=C(/C(=O)O)c2cc(OC)c(OC)c(OC)c2)cc(OC)c1 [Compound 3, (E)-3-(3,5-dimethoxyphenyl)-2-(3,4,5-trimethoxyphenyl)acrylic acid]		318	312	6	4.79 ± 0.54	58.42^## %		6.731 ± 0.5692	0.0762 ± 0.0103		
COc1ccc(/C=C(/C(=O)O)c2cc(OC)c(OC)c(OC)c2)cc1F [Compound 4, (E)-3-(3-fluoro-4-methoxyphenyl)-2-(3,4,5-trimethoxyphenyl)acrylic acid]		307	302	5				6.872 ± 0.7633	0.0787 ± 0.0122		
COc1ccc(/C=C(/C(=O)O)c2cc(OC)c(OC)c(OC)c2)cc1O [Compound 6, (E)-3-(3-hydroxy-4-methoxyphenyl)-2-(3,4,5-trimethoxyphenyl)acrylic acid]		312	307	5	3.43 ± 0.51	70.23%			0.0814 ± 0.0118	7.249 ± 0.6689	best inhibitory effect on gastric cancer
COc1cc(/C(=C\c2cc(O)c(OC)c(F)c2)C(=O)O)cc(OC)c1OC [Compound 8, (E)-3-(5-fluoro-3-hydroxy-4-methoxyphenyl)-2-(3,4,5-trimethoxyphenyl)acrylic acid]		317	311	6	4.59 ± 0.47	60.16^## %			0.0735 ± 0.0127	6.543 ± 0.7256	
COc1ccc(/C=C(/C(=O)O)c2cc(OC)c(OC)c(OC)c2)c(F)c1O [Compound 9, (E)-3-(2-fluoro-3-hydroxy-4-methoxyphenyl)-2-(3,4,5-trimethoxyphenyl)acrylic acid]		296	291	5					0.0753 ± 0.0123	6.258 ± 0.6573	
COc1cc(/C=C(/C(=O)[O-])c2cc(OC)c(OC)c(OC)c2)cc(OC)c1F.[K+] [Compound 10]		315	309	6	4.21 ± 0.58	63.45^# %		5.847 ± 0.6349	0.0623 ± 0.0114		
COc1cc(/C(=C\c2cc(O)c(OC)c(O)c2)C(=O)O)cc(OC)c1OC [Compound 11, (E)-3-(3,5-dihydroxy-4-methoxyphenyl)-2-(3,4,5-trimethoxyphenyl)acrylic acid]		317	306	11	4.72 ± 0.61	59.03^## %			0.0653 ± 0.0122	5.735 ± 0.5952	
